According to patent US20210002231A1 (Centre National de la Recherche Scientifique, priority 2018, published 2021):

How the values were obtained:
[1] = system: C57BL/6N mice; assay: Naltrexone-precipitated withdrawal syndrome; assay type: in vivo; conditions: twice daily sc. for 7 days, KGFF09 7.4 μmol/kg; in comparison to the other compounds
Protocol: On day 7, two hours after the last drug injection, the withdrawal syndrome was precipitated by administration of naltrexone (5 mg/kg, sc.) and evaluated over 30 min. Jumping, paw tremors and wet dog shakes were recorded as number of events occurring during the total test time. Diarrhea was checked for 30 min with one point given for any signs of it during each 5 min period (maximum score: 6). Body weight was measured immediately before and after each 30 min test session, and percentage of body weight lost during the test was calculated. For each mouse, a global opiate withdrawal score was also calculated by summing the values obtained for each sign. For this purpose one point was assigned to every 3 jumps and 5 paw tremors, respectively, whereas all other signs were given the absolute values recorded during the test.

[2] = biological target: NPFF2R (Homo sapiens, UniProt Q9Y5X5); assay: Radioligand competition binding with [125I]-1-DMe-NPFF; parameters: expressed in transfected cells; HEK293-Glo20F cells (cAMP)
Chain of NPFF2R (Q9Y5X5 whole entry): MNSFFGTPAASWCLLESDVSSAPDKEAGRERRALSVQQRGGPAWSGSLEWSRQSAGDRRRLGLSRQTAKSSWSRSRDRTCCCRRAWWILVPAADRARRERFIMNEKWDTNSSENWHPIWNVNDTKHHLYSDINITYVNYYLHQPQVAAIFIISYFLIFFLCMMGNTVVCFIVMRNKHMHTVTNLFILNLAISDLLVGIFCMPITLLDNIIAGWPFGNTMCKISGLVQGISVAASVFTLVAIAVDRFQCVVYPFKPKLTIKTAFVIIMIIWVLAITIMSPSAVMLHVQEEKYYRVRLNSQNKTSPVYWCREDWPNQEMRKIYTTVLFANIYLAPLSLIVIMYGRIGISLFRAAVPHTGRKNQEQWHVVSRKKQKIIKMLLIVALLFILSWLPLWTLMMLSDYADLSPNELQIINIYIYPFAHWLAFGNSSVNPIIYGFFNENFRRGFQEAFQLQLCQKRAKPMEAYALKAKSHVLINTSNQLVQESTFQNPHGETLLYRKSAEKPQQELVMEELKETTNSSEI

| Structure (SMILES) | global opiate withdrawal score, reduced to [1] | Ki [2] |
| --- | --- | --- |
| Cc1cc(O)cc(C)c1C[C@H](N)C(=O)N[C@H](CCCNC(=N)N)C(=O)N[C@H]1Cc2ccccc2CN(CCC(=O)N[C@@H](CCCN2CCC(Cc3ccccc3)CC2)C(=O)N[C@@H](Cc2ccccc2)C(N)=O)C1=O [KGFF09, H-Dmt-D-Arg-Aba-β-Ala-Bpa-Phe-NH2] | circa 50% | – |
| Cc1cc(O)cc(C)c1C[C@H](N)C(=O)N[C@H](CCCNC(=N)N)C(=O)N[C@H]1Cc2ccccc2CN(CCC(N)=O)C1=O [KGOP01, reference compound] | – | 4.5 µM |
